From US20030162777A1, “Novel N-acylated heterocycles” (Recordati S.A., priority 2001, published 2003)

Target: T1, human 5HT1A-serotonergic receptor (Homo sapiens, UniProt P08908)
T1 construct: expressed in transfected cells; host or cells: HeLa (human cell line), stably transfected; cell membranes used
T1 sequence (P08908 1-422): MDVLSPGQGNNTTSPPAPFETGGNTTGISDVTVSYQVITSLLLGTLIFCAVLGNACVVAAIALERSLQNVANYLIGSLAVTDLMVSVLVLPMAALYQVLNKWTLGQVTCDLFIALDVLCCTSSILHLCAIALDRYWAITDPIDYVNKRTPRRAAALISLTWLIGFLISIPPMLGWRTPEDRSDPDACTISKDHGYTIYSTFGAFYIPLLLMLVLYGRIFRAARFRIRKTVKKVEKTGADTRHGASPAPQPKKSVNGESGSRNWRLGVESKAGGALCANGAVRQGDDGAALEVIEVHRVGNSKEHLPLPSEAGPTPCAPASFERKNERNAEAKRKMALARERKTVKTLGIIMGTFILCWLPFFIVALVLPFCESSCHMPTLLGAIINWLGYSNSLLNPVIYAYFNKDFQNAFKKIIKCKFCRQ
Assay: Radioligand binding to recombinant 5-HT1A receptors
Conditions: [3H]8-OH-DPAT 1 nM, membranes of HeLa cells with human 5-HT1A receptor; Ki from IC50 by Cheng & Prusoff; read-out: Binding affinity for 5HT1A receptors, Ki
Description: Genomic clone G-21 coding for the human 5HT1A-serotonergic receptor was stably transfected in a human cell line (HeLa). HeLa cells were grown as monolayers in Dulbecco's modified Eagle medium (DMEM), containing 10% foetal bovine serum, gentamicin ([…]) and 5% carbon dioxide, at 37° C. The cells were detached from the growth flask at 95% confluence by a cell scraper and were lysed in cold 5 mM Tris and 5 mM EDTA buffer (pH 7.4). The homogenates were centrifuged at 40000×g×20 minutes and the pellets were resuspended in a small volume of cold 5 mM Tris and 5 mM EDTA buffer (pH 7.4) and immediately frozen and stored at −70° C. until use. On the day of experiment, the cell membranes were resuspended in incubation buffer: 50 mM Tris HCl (pH 7.4), 2.5 mM MgCl2, […] (Fargin et al., Nature 335, 358-360, 1988). The membranes were incubated in a final volume of 1 ml for 30 minutes at 30° C. with 1 nM [^3H]8-OH-DPAT, in the absence or presence of the test compounds. Non-specific binding was determined in the presence of 10 μM 5-HT. Incubation was stopped by addition of cold Tris-HC 1 buffer and rapid filtration through a 0.2%-polyethyleneimine-pretreated Whatman-GF/B or Schleicher-&-Schuell-GF52 filter.
The affinity of the tested compounds was evaluated as inhibition of specific binding of the radioligand to 5-HT1A receptors (IC50) by using the non-linear curve-fitting program Allfit (De Lean et al., Am. J. Physiol. 235, E97-E102 (1978). The IC50 value was converted to an affinity constant (Ki) by the equation of Cheng & Prusoff (Cheng Y. C., Prusoff W. H., Biochem. Pharmacol. 22, 3099-3108 (1973)).

Row | Ki | Structure (SMILES)
1 | 23.9 nM | CN(C)c1ccc(C(=O)N2c3ccccc3CCC2CN2CCN(c3cccc4[nH]ccc34)CC2)cc1 (stereo not drawn) [Example 68A1, 1-[1-(4-Dimethylaminobenzoyl)-1,2,3,4-tetrahydroquinoline-2-ylmethyl]-4-(4-indolyl)piperazine]
2 | 7.1 nM | N#Cc1ccc(C(=O)N2c3ccccc3CCC2CN2CCN(c3cccc4[nH]ccc34)CC2)cc1 (stereo not drawn) [Example 68A3, 1-[1-(4-Cyanobenzoyl)-1,2,3,4-tetrahydroquinoline-2-ylmethyl]-4-(4-indolyl)piperazine]
3 | 4.7 nM | O=C(c1ccccc1Cl)N1c2ccccc2CCC1CN1CCN(c2cccc3[nH]ccc23)CC1 (stereo not drawn) [Example 68A4, 1-[1-(2-Chlorobenzoyl)-1,2,3,4-tetrahydroquinoline-2-ylmethyl]-4-(4-indolyl)piperazine]
4 | 4 nM | O=C(c1ccc(Cl)cc1)N1c2ccccc2CCC1CN1CCN(c2cccc3[nH]ccc23)CC1 (stereo not drawn) [Example 68A5, 1-[1-(4-Chlorobenzoyl)-1,2,3,4-tetrahydroquinoline-2-ylmethyl]-4-(4-indolyl)piperazine]
5 | 14.2 nM | O=C(c1cccc(Cl)c1)N1c2ccccc2CCC1CN1CCN(c2cccc3[nH]ccc23)CC1 (stereo not drawn) [Example 68A6, 1-[1-(3-Chlorobenzoyl)-1,2,3,4-tetrahydroquinoline-2-ylmethyl]-4-(4-indolyl)piperazine]
6 | 24.6 nM | CC(C)C(=O)N1c2ccccc2CCC1CN1CCN(c2cccc3[nH]ccc23)CC1 (stereo not drawn) [Example 68A9, 1-(4-Indolyl)-4-[1-(2-methylpropionyl)-1,2,3,4-tetrahydroquinoline-2-ylmethyl]piperazine]
7 | 2.6 nM | CC(C)CC(=O)N1c2ccccc2CCC1CN1CCN(c2cccc3[nH]ccc23)CC1 (stereo not drawn) [Example 68A12, 1-(4-Indolyl)-4-[1-(3-methylbutanoyl)-1,2,3,4-tetrahydroquinoline-2-ylmethyl]piperazine]
8 | 4.1 nM | O=C(c1cccs1)N1c2ccccc2CCC1CN1CCN(c2cccc3[nH]ccc23)CC1 (stereo not drawn) [Example 68A19, 1-(4-Indolyl)-4-[1-(2-thienylcarbonyl)-1,2,3,4-tetrahydroquinoline-2-ylmethyl]piperazine]
9 | 30.7 nM | O=C(c1ccsc1)N1c2ccccc2CCC1CN1CCN(c2cccc3[nH]ccc23)CC1 (stereo not drawn) [Example 68A20, 1-(4-Indolyl)-4-[1-(3-thienylcarbonyl)-1,2,3,4-tetrahydroquinoline-2-ylmethyl]piperazine]
10 | 42.8 nM | O=C(c1ccc(C(F)(F)F)cc1)N1c2ccccc2CCC1CN1CCN(c2cccc3[nH]ccc23)CC1 (stereo not drawn) [Example 68A23, 1-(4-Indolyl)-4-[1-(4-trifluoromethylbenzoyl)-1,2,3,4-tetrahydroquinoline-2-ylmethyl]piperazine]
11 | 32.9 nM | O=C(CCc1ccccc1)N1c2ccccc2CCC1CN1CCN(c2cccc3[nH]ccc23)CC1 (stereo not drawn) [Example 68A24, 1-(4-Indolyl)-4-[1-(3-phenylpropionyl)-1,2,3,4-tetrahydroquinoline-2-ylmethyl]piperazine]
12 | 34.4 nM | O=C(c1c(F)cccc1F)N1c2ccccc2CCC1CN1CCN(c2cccc3[nH]ccc23)CC1 (stereo not drawn) [Example 68A28, 1-[1-(2,6-Difluorobenzoyl)-1,2,3,4-tetrahydroquinoline-2-ylmethyl]-4-(4-indolyl)piperazine]
13 | 19.4 nM | O=C(c1ccccn1)N1c2ccccc2CCC1CN1CCN(c2cccc3[nH]ccc23)CC1 (stereo not drawn) [Example 68A32, 1-(4-Indolyl)-4-[1-(2-pyridylcarbonyl)-1,2,3,4-tetrahydroquinoline-2-ylmethyl]piperazine]
14 | 13.3 nM | O=C(c1cccnc1)N1c2ccccc2CCC1CN1CCN(c2cccc3[nH]ccc23)CC1 (stereo not drawn) [Example 68A33, 1-(4-Indolyl)-4-[1-(3-pyridylcarbonyl)-1,2,3,4-tetrahydroquinoline-2-ylmethyl]piperazine]
15 | 24.9 nM | O=C(c1ccncc1)N1c2ccccc2CCC1CN1CCN(c2cccc3[nH]ccc23)CC1 (stereo not drawn) [Example 68A34, 1-(4-Indolyl)-4-[1-(4-pyridylcarbonyl)-1,2,3,4-tetrahydroquinoline-2-ylmethyl]piperazine]
16 | 10.7 nM | CC(C)(C)C(=O)N1c2ccccc2CCC1CN1CCN(c2cccc3[nH]ccc23)CC1 (stereo not drawn) [Example 68A36, 1-[1-(2,2-Dimethylpropionyl)-1,2,3,4-tetrahydroquinoline-2-ylmethyl]-4-(4-indolyl)piperazine]
17 | 24.4 nM | CC(=O)N1CCC(C(=O)N2c3ccccc3CCC2CN2CCN(c3cccc4[nH]ccc34)CC2)CC1 (stereo not drawn) [Example 68A38, 1-[1-(1-Acetylpiperidine-4-carbonyl)-1,2,3,4-tetrahydroquinoline-2-ylmethyl]-4-(4-indolyl)piperazine]
18 | 49.1 nM | O=C(CCc1cccnc1)N1c2ccccc2CCC1CN1CCN(c2cccc3[nH]ccc23)CC1 (stereo not drawn) [Example 68A41, 1-(4-Indolyl)-4-[1-[3-(3-pyridylpropionyl)]-1,2,3,4-tetrahydroquinoline-2-ylmethyl]piperazine]
19 | 20.7 nM | O=C(COCc1ccccc1)N1c2ccccc2CCC1CN1CCN(c2cccc3[nH]ccc23)CC1 (stereo not drawn) [Example 68A44, 1-(4-Indolyl)-4-[1-(2-phenylmethoxyacetyl)-1,2,3,4-tetrahydroquinoline-2-ylmethyl]piperazine]
20 | 34.9 nM | CN(CC(=O)N1c2ccccc2CCC1CN1CCN(c2cccc3[nH]ccc23)CC1)C(=O)c1ccccc1 (stereo not drawn) [Example 68A46, 1-[1-[2-(N-Benzoyl-N-methylamino)acetyl]-1,2,3,4-tetrahydroquinoline-2-ylmethyl]-4-(4-indolyl)piperazine]
21 | 17.1 nM | Cn1cc(C(=O)N2c3ccccc3CCC2CN2CCN(c3cccc4[nH]ccc34)CC2)c2ccccc21 (stereo not drawn) [Example 68A47, 1-(4-Indolyl)-4-[1-(1-methyl-3-indolylcarbonyl)-1,2,3,4-tetrahydroquinoline-2-ylmethyl]piperazine]

Row | Structure (SMILES) | Ki
22 | O=C(Cc1ccccc1)N1c2ccccc2CCC1CN1CCN(c2cccc3[nH]ccc23)CC1 (stereo not drawn) [Example 68A2, 1-(4-Indolyl)-4-[1-(2-phenylacetyl)-1,2,3,4-tetrahydroquinoline-2-ylmethyl]piperazine] | 13.9 nM
23 | O=C(Cc1ccc(Cl)cc1)N1c2ccccc2CCC1CN1CCN(c2cccc3[nH]ccc23)CC1 (stereo not drawn) [Example 68A30, 1-[1-[2-(4-Chlorophenyl)acetyl]-1,2,3,4-tetrahydroquinoline-2-ylmethyl]-4-(4-indolyl)piperazine] | 23.8 nM
24 | O=C(Cc1ccc(C(F)(F)F)cc1)N1c2ccccc2CCC1CN1CCN(c2cccc3[nH]ccc23)CC1 (stereo not drawn) [Example 68A31] | 41.8 nM
25 | O=C(Cc1cccs1)N1c2ccccc2CCC1CN1CCN(c2cccc3[nH]ccc23)CC1 (stereo not drawn) [Example 68A39, 1-(4-Indolyl)-4-[1-[2-(2-thienylacetyl)]-1,2,3,4-tetrahydroquinoline-2-ylmethyl]piperazine] | 6.8 nM
26 | O=C(Cc1ccsc1)N1c2ccccc2CCC1CN1CCN(c2cccc3[nH]ccc23)CC1 (stereo not drawn) [Example 68A40, 1-(4-Indolyl)-4-[1-[2-(3-thienylacetyl)]-1,2,3,4-tetrahydroquinoline-2-ylmethyl]piperazine] | 7.5 nM
27 | O=C(COc1ccccc1)N1c2ccccc2CCC1CN1CCN(c2cccc3[nH]ccc23)CC1 (stereo not drawn) [Example 68A42, 1-(4-Indolyl)-4-[1-(2-phenoxyacetyl)-1,2,3,4-tetrahydroquinoline-2-ylmethyl]piperazine] | 19.8 nM
28 | COc1ccc(CC(=O)N2c3ccccc3CCC2CN2CCN(c3cccc4[nH]ccc34)CC2)cc1 (stereo not drawn) [Example 68A43, 1-(4-Indolyl)-4-[1-[2-(4-methoxyphenylacetyl)]-1,2,3,4-tetrahydroquinoline-2-ylmethyl]piperazine] | 42.7 nM
29 | O=C(Cc1ccccc1Cl)N1c2ccccc2CCC1CN1CCN(c2cccc3[nH]ccc23)CC1 (stereo not drawn) [Example 68A45, 1-[1-[2-(2-Chlorophenylacetyl)]-1,2,3,4-tetrahydroquinoline-2-ylmethyl]-4-(4-indolyl)piperazine] | 8.6 nM
30 | O=C(Cc1ccc2c(c1)OCO2)N1c2ccccc2CCC1CN1CCN(c2cccc3[nH]ccc23)CC1 (stereo not drawn) [Example 68A49, 1-[1-[2-(5-Benzo[1,3]dioxolyl)acetyl]-1,2,3,4-tetrahydroquinoline-2-ylmethyl]-4-(4-indolyl)piperazine] | 18.7 nM
